The target in data set [1] is T1, Panx-1 (Mus musculus, UniProt Q9JIP4).
T1 construct: gene Panx1
The experiment in a line: two-electrode voltage clamp in oocytes, […] CBX applied in each experiment. It is filed as cell-based. Conditions: read-out: % inhibition at 100 μM. (Two-electrode voltage clamp holds a large cell at a set potential and records current.)

The nature of data set [2]: physchem. Details: chemical stability in PBS at 37 °C, HPLC-MS/MS, half-life from first-order degradation plot. Conditions: PBS. The protocol: (§1) In these assays, the variation of analytes concentration at four different incubation times both in PBS and in human plasma samples was monitored to evaluate their susceptibility toward spontaneous or enzymatic hydrolysis, respectively. By plotting any variation of analyte concentration vs. the incubation time, the corresponding degradation profiles in tested matrices were obtained. The analyte concentration (1 µM) used during the stability tests is generally smaller than its Michaelis–Menten constant (KM), and the enzymatic degradation rate is described by a first-order kinetic. Therefore, by plotting the natural logarithm of the quantitative data versus the incubation time, a linear function can be used, and its slope represents the degradation rate (k). Accordingly, with the linear function, the half-life (t1/2) of each tested compound can be calculated as follows: t1/2=[…] The plots of the natural logarithm of the quantitative data versus the incubation time of all the studied compounds were analyzed. […] Parameters beyond this value will be indicated as >120 min. […] The degradation plots in PBS and human plasma of our ester compounds are reported in Supporting Information (Figures S1–S6 and Table S1).

A short description of data set [3]: in vitro. Details: stability in human plasma at 37 °C, HPLC-MS/MS, half-life from first-order degradation plot. Conditions: plasma; human plasma; read-out: H-pl. The method, then:
as §1

In data set [4] the target is T1, Panx-1. Description: two-electrode voltage clamp, Xenopus laevis oocytes expressing mouse pannexin1. Format: cell-based.
Data set [5] has as its target T1, Panx-1. The experiment in a line: two-electrode voltage clamp, Xenopus laevis oocytes, single dose […]. It is filed as cell-based.

Structures are written as SMILES. Read-outs that look alike come from different tables or passages of the source.

T1 sequence (Q9JIP4 whole entry): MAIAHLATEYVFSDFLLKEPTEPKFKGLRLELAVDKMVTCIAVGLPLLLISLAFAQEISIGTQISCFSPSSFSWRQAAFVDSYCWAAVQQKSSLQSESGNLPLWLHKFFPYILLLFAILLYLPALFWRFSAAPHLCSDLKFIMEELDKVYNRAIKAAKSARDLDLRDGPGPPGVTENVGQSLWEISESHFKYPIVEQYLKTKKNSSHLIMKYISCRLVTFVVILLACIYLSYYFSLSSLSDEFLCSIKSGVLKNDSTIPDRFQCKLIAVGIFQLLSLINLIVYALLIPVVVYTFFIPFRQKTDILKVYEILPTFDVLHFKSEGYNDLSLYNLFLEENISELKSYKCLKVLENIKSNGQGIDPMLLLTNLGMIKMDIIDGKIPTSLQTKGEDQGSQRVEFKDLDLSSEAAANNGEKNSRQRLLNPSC

`CC1(C)[C@@H](OC(=O)CCC(=O)O)CC[C@]2(C)[C@H]3C(=O)C=C4[C@@H]5C[C@@](C)(C(=O)O)CC[C@]5(C)CC[C@@]4(C)[C@]3(C)CC[C@@H]12` [CBX, carbenoxolone]: the inhibition at 100 µM in data set [1] was 100%.
For `CCOC(=O)c1cn(CCCCCc2ccccc2)c2ccc([N+](=O)[O-])cc2c1=O` [4e, Ethyl 6-nitro-4-oxo-1-(5-phenylpentyl)-1,4-dihydroquinoline-3-carboxylate], the half-life at 1 µM in data set [2] and in data set [3] was more than 2 h throughout.
Turning to `CCOC(=O)c1cn(CCc2ccccc2)c2ccc([N+](=O)[O-])cc2c1=O` [4b, Ethyl 6-nitro-4-oxo-1-phenethyl-1,4-dihydroquinoline-3-carboxylate], the half-life at 1 µM in data set [2] and in data set [3] was more than 2 h in each case.
Compound `O=C(O)c1ccc(Nc2c(C(=O)O)cnc3ccccc23)cc1` [13g, 4-[(4-Carboxyphenyl)amino]quinoline-3-carboxylic acid] displayed an IC50 in data set [4] of 15.5 µM.
As for `CCCNS(=O)(=O)c1ccc(Nc2c(C(=O)O)cnc3ccccc23)cc1` [13d, 4-[4-(N-Propylsulfamoyl)phenyl]aminoquinoline-3-carboxylic acid], the inhibition at 50 µM in data set [5] (read-out: TABLE 2) came to 66 ± 4%.
In turn, `O=C(O)c1ccc(Cn2cc(C(=O)O)c(=O)c3cc([N+](=O)[O-])ccc32)cc1` [6g, 1-(4-Carboxybenzyl)-6-nitro-4-oxo-1,4-dihydroquinoline-3-carboxylic acid] had an IC50 in data set [4] of 1.5 µM.
Regarding `CCOC(=O)c1cn(CCCCc2ccccc2)c2ccc([N+](=O)[O-])cc2c1=O` [4d, Ethyl 6-nitro-4-oxo-1-(4-phenylbutyl)-1,4-dihydroquinoline-3-carboxylate], the half-life at 1 µM in data set [2] and in data set [3] was more than 2 h in each case.
With `Nc1ccc2c(c1)c(=O)c(C(=O)O)cn2Cc1ccccc1` [compound 8, 6-Amino-1-benzyl-4-oxo-1,4-dihydroquinoline-3-carboxylic acid], the inhibition at 50 µM in data set [5] (read-out: TABLE 1) came out at 57 ± 5.9%.
As to `O=C(O)c1cn(Cc2ccccc2)c2ccc([N+](=O)[O-])cc2c1=O` [6a, 1-Benzyl-6-nitro-4-oxo-1,4-dihydroquinoline-3-carboxylic acid], the inhibition at 50 µM in data set [5] (read-out: TABLE 1) amounted to 53 ± 2.9%.
In the case of `CCOC(=O)c1cn(Cc2ccc(S(N)(=O)=O)cc2)c2ccc([N+](=O)[O-])cc2c1=O` [4f, Ethyl 6-nitro-4-oxo-1-(4-sulfamoylbenzyl)-1,4-dihydroquinoline-3-carboxylate], the half-life at 1 µM in data set [2] and in data set [3] was more than 2 h throughout.
`NS(=O)(=O)c1ccc(Cn2cc(C(=O)O)c(=O)c3cc([N+](=O)[O-])ccc32)cc1` [6f, 6-Nitro-4-oxo-1-(4-sulfamoylbenzyl)-1,4-dihydroquinoline-3-carboxylic acid] had an IC50 in data set [4] of 3 µM.
As to `CCCN(CCC)S(=O)(=O)c1ccc(Nc2c(C(=O)O)cnc3ccccc23)cc1` [13e, 4-[4-(N,N-Dipropylsulfamoyl)phenyl]aminoquinoline-3-carboxylic acid], in data set [4], the IC50 came to 4.2 µM.

Broadly, the IC50 is the concentration that gives 50% inhibition. A lower IC50 goes with inhibition by little substance.
